Test results taken from US4180577A, “Furo[2, 3d]pyrimidine derivatives and anti-ulcer containing the same” (Eisai Co., Ltd., priority 1974, dated 1979).
Several values for one entry are separate records, joined by “and”; a condition that tells them apart may be missing. Equal entries are not always repeated. Structures can show the parent of a compound that is named as a salt.

Legend:
[1] = system: Secretion of Gastric Juice; assay: Effect for Secretion of Gastric Juice (pylorus-ligated rats, Shay method); type: in vivo, male rats of SD strain; conditions: rat, 100 mg/Kg, into the duodenum; for Amount of gastric juice Vol. / Free Acid Output / Total Acid Output: 4 hours; for Amount of gastric juice Vol.: control 1.78 ± 0.26; for Free Acid Output: control 133.2 ± 32.7; for Total Acid Output: control 154.0 ± 36.0; for suppression of the amount of the gastric juice / suppression of the free acid output / suppression of the total acid output: vs control group
Experimental: (§1) The compounds to be tested were suspended in 5% serous gum arabic solution, so as to adjust their concentration to 0.5 ml/100 g B.W. for oral administration, or 0.2 ml/100 g B.W. for duodenum administration. Indomethacin, [1-(p-chlorobenzoyl)-5-methoxy-2-methylindole-3-acetic acid] for control was suspended in 5% serous gum arabic solution, so as to adjust its concentration to 0.5 ml/100 g B.W.
The solutions of the compounds to be tested were adjusted to pH 5.0, and administered into the duodenum. The bellys were closed. After 4 hours, the animals were slaughtered by anesthesia, and the gastric juice was collected.
The volume of the gastric juice was measured and titrated by N/50 NaOH solution with Topfer indicator and phenolphthalein indicator, to determine the free acid output the total acid output, respectively.
The compounds to be tested were administered into the duodenum immediately after ligaturing the pylorus.
The medicine solution was adjusted to pH 5.0 with N--NaOH solution.

[2] = system: Ligature Ulcer of the Pylorus; assay: Effect on Ligature Ulcer of the Pylorus; type: in vivo, male rats of SD strain; conditions: rat, 300 mg/Kg, into the duodenum, 17 hours
Experimental: as §1
According to the method by H. Shay et al. [Gastroenterology 5, 43 (1945)], male rats (weighing about 320 g) of SD strain were fasted for 24 hours, and then incised the belly under the ether rausch anesthesia, and finally ligatured the pyloruses. The solution of compounds to be tested were adjusted to pH 5.0, and administered into the duodenum. The bellys were closed. After subsequent 17 hours, the animals were slaughtered by the anesthesia, and their stomaches were extirpated. More particularly, the stomaches were incised along the greater curvature. The ulcer generated at forestomach was ranged as shown in the following. The total of the ranking was named as the ulcer index.
Greater than 1 mm, but not greater
Greater than 3 mm, but not greater
Greater than 5 mm, but not greater

[3] = system: Immersive Stress-induced Ulcer; assay: Inhibitory Effects on the Immersive Stress-induced Ulcer; type: in vivo, female rats of SD strain; conditions: rat, oral; for Percentage of inhibition (ulcer index): vs control; for Ulcer index: control 80.4 ± 3.5
Experimental: as §1
According to the method by K. Takagi et al. [Jap. J. Pharmacol. 18, 9 )1968)], female rats (weighing about 160 g) of SD strain were put in a cage made of wire gauze for restraint, dipped in a water bath at the temperature of 23° C. so as to cover the lower end of their breast bones, and allowed to stand for 20 hours. The animals were then slaughtered by the anesthesia, and their stomaches were extirpated. The stomaches were inflated with 10 ml of physiological saline water, and dipped in 0.5% neutral formalin solution for about 5 minutes according to the method by D. A. Brodie et al [Gastroenterology 38, 354-360 (1960)]. The stomaches were then incised along the greater curvature. The length of each ulcer (erosion) generated at adeno-stomach was measured. The total of said lengthes were assigned as the ulcer index.
The compounds to be tested were orally administered prior to the immersion.

[4] = system: Cold-restraint Stress Induced Ulcer; assay: Inhibitory Effects on Cold-restraint Stress Induced Ulcer; type: in vivo, female rats of SD strain; conditions: rat, oral; for Percentage of inhibition (ulcer index) / Ulcer index: 30 minutes prior to stress; for Percentage of inhibition (ulcer index): vs control, hydrobromide; for Ulcer index: control 14.8 ± 1.7
Experimental: as §1
This experiment was effected by referring to the method by S. Dai et al. [Eur. J. Pharmaco. 26, 15-21 (1974)] and the method by M. M. Goldenberg et al. [Am. J. Dic. Dis 19, 4, 353-360 (1974)].
Female rats of SD strain (weighing about 180 g) were restrained in a cage made of wire gauze, and the cage was allowed to stand in a room at the low temperature at 4° C. for two hours. After subsequent two hours, the animals were slaughtered. The stomaches were extirpated. Thereafter, the subsequent procedure was carried out in accordance with the pharmacological experiment 3.
The compounds to be tested were orally administered 30 minutes prior to exposure of the stress.

[5] = system: Indomethacin-induced Ulcer; assay: Effects on Indomethacin-induced Ulcer; type: in vivo, Wister strain male rats; conditions: rat, oral, 30 minutes prior to Indomethacin 40 mg/Kg; for Percentage of inhibition (ulcer index): vs control; for Ulcer index: control 9.30 ± 3.09; for Percentage of Incidence of Ulcer: control 75
Experimental: as §1
Wister strain male rats (weighing about 230 g) were subjected to the fast for 24 hours. 40 mg/Kg of the Indomethacin were orally administered, respectively. After 4 hours from the administration, the animals were slaughtered and their stomaches were extirpated. The subsequent procedures were carried out in accordance with the pharmacological experiment 3.
The compounds to be tested were orally administered 30 minutes prior to the administration of Indomethacin.

`C=CCSc1nc(N)c2c(C)coc2n1` [C, 2-Allylmercapto-4-amino-5-methyl-furo[2, 3d]pyrimidine] was tested, and the “Amount of gastric juice Vol.” value [1] was 0.49 ± 0.11 (ml)/100g B.W, the “Free Acid Output” value [1] was 18.2 ± 7.1 μEq/100g B.W and the “Total Acid Output” value [1] was 33.1 ± 7.6 μEq/100g B.W. The “suppression of the amount of the gastric juice” value [1] was “over 54%”, the “suppression of the free acid output” value [1] was “over 69%” and the “suppression of the total acid output” value [1] was “over 57%”.

In the case of `CCSc1nc(N)c2c(C)coc2n1` [Compound A, 2-Ethylmercapto-4-amino-5-methyl-furo[2, 3d]pyrimidine hydrobromide], the “Amount of gastric juice Vol.” value [1] is reported as 0.81 ± 0.15 (ml)/100g B.W, the “Free Acid Output” value [1] is reported as 41.0 ± 16.6 μEq/100g B.W and the “Total Acid Output” value [1] is reported as 65.8 ± 20.4 μEq/100g B.W. The “suppression of the amount of the gastric juice” value [1] was “over 54%”, the “suppression of the free acid output” value [1] was “over 69%” and the “suppression of the total acid output” value [1] was “over 57%”. The “Percentage of inhibition (ulcer index)” value ([2]; vs control) was 100%, the Ulcer index ([2]; control 54 ± 14) was 0 ± 0 mm and the “Percentage of inhibition (ulcer index)” value ([3]; 150 mg/Kg) was 21.0%. The Ulcer index ([3]; 150 mg/Kg) was 63.5 ± 6.5 mm, the “Percentage of inhibition (ulcer index)” value ([3]; 300 mg/Kg) was 38.7% and the Ulcer index ([3]; 300 mg/Kg) was 49.3 ± 3.4 mm. For the same molecule, the “dose dependence of ulcer inhibition” value ([3]; 150 and 300 mg/Kg) was “dose dependent”, the “Percentage of inhibition (ulcer index)” value ([4]; 50 mg/Kg, 50 mg/kg) was 78.4% and 78% and the Ulcer index ([4]; 50 mg/Kg) was 3.2 ± 1.0 mm. The “Percentage of inhibition (ulcer index)” value ([4]; 100 mg/Kg, 100 mg/kg) was 85.8% and 86%, the Ulcer index ([4]; 100 mg/Kg) was 2.1 ± 0.6 mm and the “dose dependence of ulcer inhibition” value ([4]; 50 and 100 mg/Kg) was “dose dependent”. For the same molecule, the “Percentage of inhibition (ulcer index)” value ([5]; 25 mg/Kg) was 82%, the “Ulcer index” value ([5]; 25 mg/Kg) was 1.67 ± 1.00 mm and the “Percentage of Incidence of Ulcer” value ([5]; 25 mg/Kg) was 38%. The “Percentage of inhibition (ulcer index)” value ([5]; 50 mg/Kg) was 100%, the “Ulcer index” value ([5]; 50 mg/Kg) was 0 ± 0 mm and the “Percentage of Incidence of Ulcer” value ([5]; 50 mg/Kg) was 0%. For the same molecule, the “Percentage of inhibition (ulcer index)” value ([5]; 100 mg/Kg) was 98%, the “Ulcer index” value ([5]; 100 mg/Kg) was 0.20 ± 0.19 mm and the “Percentage of Incidence of Ulcer” value ([5]; 100 mg/Kg) was 13%.

In the case of `CSc1nc(N)c2c(C)coc2n1` [B, 2-Methylmercapto-4-amino-5-methyl-furo[2, 3d]pyrimidine hydrobromide], the “Amount of gastric juice Vol.” value [1] is reported as 0.51 ± 0.09 (ml)/100g B.W, the “Free Acid Output” value [1] is reported as 16.5 ± 5.5 μEq/100g B.W and the “Total Acid Output” value [1] is reported as 37.8 ± 5.6 μEq/100g B.W. For the same molecule, the “suppression of the amount of the gastric juice” value [1] was “over 54%”, the “suppression of the free acid output” value [1] was “over 69%” and the “suppression of the total acid output” value [1] was “over 57%”.
